# Tests used:
# [1] = tested on: Cy5-hTERT-FL (DNA, G4) GGGGAGGGGCTGGGAGGGCCCGGAGGGGGCTGGGCCGGGGACCCGGGAGGGGTCGGGACGGGGCGGGG; assay: microscale thermophoresis; conditions: 25 mM KCl, pH 7.2, 1.5% DMSO
# [2] = tested on: PQS23 (FRET-labelled) (DNA, G4) AGGGGGCTGGGCCGGGGACCCGGGAGGGGTCGGGACGGGGCGGGG; assay: fluorescence thermal shift assay; conditions: 100 μM compound, 0.5 μM DNA, phosphate buffer
# [3] = tested on: Ctrl HP (FRET-labelled) (DNA, hairpin) GCATGCTTTTGCATGC; assay: fluorescence thermal shift assay; conditions: 100 μM compound, 0.5 μM DNA, phosphate buffer
# [4] = tested on: PQS12 (FRET-labelled) (DNA, G4) AGGGGAGGGGCTGGGAGGGCCCGGAGGGGGCTGGGCCGGGGACCCGGGA; assay: fluorescence thermal shift assay; conditions: 100 mM K+; 100 μM compound, 0.5 μM DNA, phosphate buffer
# [5] = tested on: TERT-FL (hTERT-FL) (DNA, G4) GGGGAGGGGCTGGGAGGGCCCGGAGGGGGCTGGGCCGGGGACCCGGGAGGGGTCGGGACGGGGCGGGG; assay: CD melting, 260 nm; conditions: 20 mM KCl; 25 μM compound, 1.1 μM DNA
# [6] = tested on: H-Tel G4 (DNA, G4) AGGGTTAGGGTTAGGGTTAGGG; assay: competition dialysis; conditions: 185 mM K+, phosphate buffer, RT, 5 μM compound, 75 μM DNA as tetrads, per tetrad, per base
# [7] = tested on: GC duplex (DNA, hairpin) GCGCGCGCGCTTTTGCGCGCGCGC; assay: competition dialysis; conditions: 185 mM K+, phosphate buffer, RT, 5 μM compound, 75 μM DNA as base pairs, per base pair
# [8] = tested on: TERT-FL (hTERT-FL) (DNA, G4) GGGGAGGGGCTGGGAGGGCCCGGAGGGGGCTGGGCCGGGGACCCGGGAGGGGTCGGGACGGGGCGGGG; assay: competition dialysis; conditions: 185 mM K+, phosphate buffer, RT, 5 μM compound, 75 μM DNA as tetrads, per tetrad, per base
# [9] = tested on: c-Myc G4 (DNA, G4) TGAGGGTGGGTAGGGTGGGTAA; assay: competition dialysis; conditions: 185 mM K+, phosphate buffer, RT, 5 μM compound, 75 μM DNA as tetrads, per tetrad, per base
# [10] = tested on: AT duplex (DNA, hairpin) ATATATATATCCCCATATATATAT; assay: competition dialysis; conditions: 185 mM K+, phosphate buffer, RT, 5 μM compound, 75 μM DNA as base pairs, per base pair
# [11] = tested on: PQS12 (DNA, G4) AGGGGAGGGGCTGGGAGGGCCCGGAGGGGGCTGGGCCGGGGACCCGGGA; assay: competition dialysis; conditions: 185 mM K+; phosphate buffer, RT, 5 μM compound, 75 μM DNA as tetrads
# [12] = tested on: PQS23 (DNA, G4) AGGGGGCTGGGCCGGGGACCCGGGAGGGGTCGGGACGGGGCGGGG; assay: competition dialysis; conditions: 185 mM K+; phosphate buffer, RT, 5 μM compound, 75 μM DNA as tetrads
# [13] = tested on: GC Triplex (DNA, triplex) CCCCCCCCTTTTGGGGGGGGTTTTCCCCCCCC; assay: competition dialysis; conditions: 185 mM K+, phosphate buffer, RT, 5 μM compound, 75 μM DNA as triplets, per triplet, per base
smiles,measurement,setting,value
CN(CCc1ccccc1)c1nc(-c2ccc(F)cc2)nc2ccccc12,binding,"[1]; BPEK buffer, up to 200 μM, no reliable fit",no
Cc1cnccc1NCCNC(=O)c1cccc(CC2CCNCC2)c1,binding,[2]; 100 mM K+,yes
same,binding,[3]; 100 mM K+,no
same,binding,[4],no
CCc1nc(N(CCC(=O)NC(C)C)CCc2ccccc2)c2ccccc2n1,Kd,"[1]; BPEK buffer, 20 nM DNA","5 [1, 23] μM"
CCOc1ccccc1CCNc1nc(CCN)nc2ccccc12,Kd,"[1]; BPEK buffer (8 mM sodium phosphate, 1 mM EDTA), 20 nM DNA",3 µM
same,binding,[2]; K+ (concentration not stated),yes
same,binding,[3]; K+ (concentration not stated),no
CN(CCc1ccccc1)c1nc(CCN)nc2ccccc12,binding,[5],yes
same,apparent Kd,[6],> 140 µM
same,Kd,"[1]; BPEK buffer, 20 nM DNA","8 [4, 19] μM"
same,apparent Kd,[7],> 140 µM
same,apparent Kd,[8],24 µM
same,apparent Kd,[9],> 140 µM
same,apparent Kd,[10],> 140 µM
same,binding,[11],yes
same,binding,[12],yes
same,apparent Kd,[13],> 140 µM
Cc1nc(NCCc2ccccc2)c2ccccc2n1,Kd,"[1]; BPEK buffer, 20 nM DNA","13 [7, 24] μM"
COCCN1CC2CCC1CN(c1nc(N(C)C)nc(C)c1C)C2 (stereo not drawn),binding,[5],yes
same,apparent Kd,[6],> 140 µM
same,apparent Kd,[7],> 140 µM
same,apparent Kd,[8],22 µM
same,apparent Kd,[9],> 140 µM
same,apparent Kd,[10],> 140 µM
same,apparent Kd,[13],> 140 µM
CCCC(CCC)C1CCN(c2nc(CCN)nc3ccccc23)CC1,Kd,"[1]; BPEK buffer, 20 nM DNA","17 [7, 45] μM"
same,binding,[2]; K+ (concentration not stated),yes
same,binding,[3]; K+ (concentration not stated),no
NC(N)=NCCCS(=O)(=O)Nc1ccc(Nc2c3ccccc3nc3cc([N+](=O)[O-])ccc23)cc1,apparent Kd,"[1]; BPEK buffer, 20 nM DNA, without calf thymus DNA, apparent",2 µM

# From publication PMC9202945 (2022)
